{"source": "patent US6391868B1", "about": "“Use of 5-alpha-androst-1-en-3,17-dione to increase the level of the anabolic/androgenic hormone 17-beta-hydroxy-5-alpha-androst-1-en-3-one in humans” (LPT Research, Inc., priority 2000, dated 2002)", "key": {"[1]": {"assay": "Oral treatment of a person with andropause-type symptoms", "type": "in vivo, human", "details": "oral 3×100 mg daily, 4 weeks, one person", "protocol": "A person with complaints of decreased libido, lethargy, depression, and muscular weakness, was treated for 4 weeks with oral androstenedione 3×100 mg daily. […] After a 2 week respite, they then commenced a 4 week regimen of 5alpha-ANDROST-1-EN-3,17-DIONE using the same protocol (3×100 mg daily)."}, "[2]": {"details": "100 mg orally to men; cited from earlier work"}, "[3]": {"details": "Steroids (8) 216; cited from earlier work"}}, "data": [{"smiles": "C[C@]12C=CC(=O)C[C@@H]1CC[C@@H]1[C@@H]2CC[C@]2(C)C(=O)CC[C@@H]12", "note": "[5alpha-ANDROST-1-EN-3,17-DIONE, 5alpha-androst-1-en-3,17-dione]", "values": [{"measurement": "reported improvement of symptoms (decreased libido, lethargy, depression, muscular weakness)", "setting": "[1]", "result": "clearly evident significant improvements in all their symptoms"}, {"measurement": "excretion of 17beta-hydroxy-5alpha-androst-1-en-3-one in the urine", "setting": "[2]", "result": "considerable excretion"}]}, {"smiles": "C[C@]12C=CC(=O)C[C@@H]1CC[C@@H]1[C@@H]2CC[C@]2(C)[C@@H](O)CC[C@@H]12", "note": "[17beta-hydroxy-5alpha-androst-1-en-3-one]", "values": [{"measurement": "anabolic properties relative to testosterone", "setting": "[3]", "result": "considerably more potent"}]}, {"smiles": "C[C@]12CCC(=O)C=C1CC[C@@H]1[C@@H]2CC[C@]2(C)C(=O)CC[C@@H]12", "note": "[androstenedione, 4-androstenedione]", "values": [{"measurement": "reported improvement of symptoms (decreased libido, lethargy, depression, muscular weakness)", "setting": "[1]", "result": "did not report any noticeable improvement"}]}]}
